Measured values: the supplement of paper PMC8967900

Columns and labels:
Assay in all cases: selective drug sensitivity score (sDSS, relative to normal bone marrow) (sDSS (score)); higher = more potent and effective on the cell line relative to normal bone marrow cells
Conditions in all cases: 72 h
P30-OHKUBO = system: P30-OHKUBO
PF-382 = system: PF-382
CCRF-CEM = system: CCRF-CEM
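Also: ALL cell lines in 384-well plates, five doses spanning 10,000-fold, each plate scaled between vehicle and 100 µmol/L benzalkonium chloride controls, sDSS an adapted area-under-curve metric.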

SMILES	selective drug sensitivity score (P30-OHKUBO)	selective drug sensitivity score (PF-382)	selective drug sensitivity score (CCRF-CEM)
CN(C)c1cc2c(cc1Sc1nc3c(N)nccc3n1CCNCC(C)(C)C)OCO2 [CUDC-305] (top concentration 10000 nM)	1.72	3.82	3.32
NC(=O)Nc1cc(-c2cccc(F)c2)sc1C(=O)N[C@H]1CCCNC1 [AZD7762] (top concentration 1000 nM)	3.3	-0.5	-0.1
COC(=O)C[C@](O)(CCCC(C)(C)O)C(=O)O[C@@H]1C(OC)=C[C@]23CCCN2CCc2cc4c(cc2[C@H]13)OCO4 [Omacetaxine] (top concentration 10000 nM)	3.12	0.62	3.02
CCNC(=O)c1noc(-c2cc(C(C)C)c(O)cc2O)c1-c1ccc(CN2CCOCC2)cc1 [Luminespib] (top concentration 1000 nM)	-3.9	-1.4	-0.5
C[C@@H](Oc1cc(-n2cnc3ccc(CN4CCN(C)CC4)cc32)sc1C(N)=O)c1ccccc1C(F)(F)F (top concentration 10000 nM)	21.7	26.7	22.7
O=C(c1ccc(F)c(F)c1Nc1ccc(I)cc1F)N1CC(O)([C@@H]2CCCCN2)C1 [Cobimetinib] (top concentration 1000 nM)	-3.68	-3.28	-3.58
Nc1nc2[nH]cc(CCc3ccc(C(=O)N[C@@H](CCC(=O)O)C(=O)O)cc3)c2c(=O)[nH]1 [Pemetrexed] (top concentration 10000 nM)	26.4	12.1	23.6
CC#CC(=O)N1CC[C@@H](n2c(=O)n(-c3ccc(Oc4ccccc4)cc3)c3c(N)ncnc32)C1 [Tirabrutinib] (top concentration 1000 nM)	0	0	0
CO[C@@H](C)Cn1c(=O)n(C)c2cnc3ccc(-c4cncc(C(C)(C)O)c4)cc3c21 (top concentration 2500 nM)	8.18	5.88	8.48
C1=N/C2=N/c3ccc(OCCN4CCCC4)c(c3)COC/C=C/COCc3cccc(c3)C(=C1)N2 [Pacritinib] (top concentration 10000 nM)	1.2	-7.5	-6.1
CC(=O)OC[C@H]1O[C@@H]([S-])[C@H](OC(C)=O)[C@@H](OC(C)=O)[C@@H]1OC(C)=O.CCP(CC)CC.[Au+] [Auranofin] (top concentration 2500 nM)	4.84	-1.36	2.74
O=C(/C=C/c1cccnc1)NCCCCC1CCN(C(=O)c2ccccc2)CC1 [Daporinad] (top concentration 1000 nM)	16	18.4	8.56
CC(C)C[C@H](NC(=O)[C@H](Cc1ccccc1)NC(=O)c1cnccn1)B(O)O [Bortezomib] (top concentration 1000 nM)	4.72	1.82	6.52
C[C@]12C=CC(=O)C=C1CC[C@@H]1[C@@H]2[C@@H](O)C[C@@]2(C)[C@H]1CC[C@]2(O)C(=O)CO [Prednisolone] (top concentration 10000 nM)	15	-1.6	6.4
Cn1c(=O)n(-c2ccc(C(C)(C)C#N)cc2)c2c3cc(-c4cnc5ccccc5c4)ccc3ncc21 [Dactolisib] (top concentration 1000 nM)	14.8	9.36	12.9
Cc1cc([C@@H](C)Nc2ccccc2C(=O)O)c2nc(N3CCOCC3)cc(=O)n2c1 [AZD-6482] (top concentration 2500 nM)	9.12	2.62	2.02
COc1ccc(CCc2nc3cc(-c4c(C)noc4C)ccc3n2C[C@H](C)N2CCOCC2)cc1Cl [SGC-CBP30] (top concentration 25000 nM)	1.88	3.08	4.28
O=C(/C=C\n1cnc(-c2cc(C(F)(F)F)cc(C(F)(F)F)c2)n1)NNc1ccccn1 [Verdinexor] (top concentration 1000 nM)	4.34	6.54	5.24
CCN(CC)CCCC(C)Nc1c2ccc(Cl)cc2nc2ccc(OC)cc12 (stereo not given) [Mepacrine] (top concentration 50000 nM)	-0.3	-4.6	-5
COc1nc(N)nc2c1ncn2[C@@H]1O[C@H](CO)[C@@H](O)[C@@H]1O [Nelarabine] (top concentration 10000 nM)	-1.82	-1.62	4.18
Nc1nc2[nH]cnc2c(=S)[nH]1 [Thioguanine] (top concentration 10000 nM)	11.6	12	15.3
Cc1cccc(-c2[nH]c(CNc3ccccc3F)nc2-c2ccc3ncnn3c2)n1 [Vactosertib (TEW-7197)] (top concentration 2500 nM)	-0.4	-0.5	-0.5
Cc1c(N)nc([C@H](CC(N)=O)NC[C@H](N)C(N)=O)nc1C(=O)N[C@H](C(=O)N[C@H](C)[C@@H](O)[C@H](C)C(=O)N[C@H](C(=O)NCCc1nc(-c2nc(C(=O)NCCC[S+](C)C)cs2)cs1)[C@@H](C)O)[C@@H](O[C@@H]1O[C@@H](CO)[C@@H](O)[C@H](O)[C@@H]1O[C@H]1O[C@H](CO)[C@@H](O)[C@H](OC(N)=O)[C@@H]1O)c1c[nH]cn1 [Bleomycin] (top concentration 10000 nM)	4.44	1.94	1.04
CC(C)(C)c1cc(NC(=O)Nc2ccc(-c3cn4c(n3)sc3cc(OCCN5CCOCC5)ccc34)cc2)no1 [Quizartinib] (top concentration 1000 nM)	0.68	0.98	0.98
Cc1sc2c(c1C)C(c1ccc(Cl)cc1)=N[C@@H](CC(=O)OC(C)(C)C)c1nnc(C)n1-2 [JQ1] (top concentration 10000 nM)	8.72	5.22	1.32
Nc1nccc(-c2c(-c3ccc(F)cc3)ncn2C2CCCCC2)n1 (top concentration 10000 nM)	4.3	0.8	0.7
Nc1cc(F)ccc1NC(=O)/C=C/c1cnn(C/C=C/c2ccccc2)c1 [RGFP966] (top concentration 10000 nM)	14	11.1	13.9
CNC(=O)c1ccccc1Nc1nc(Nc2ccc3c(c2OC)CCC[C@H](N2CCN(CCO)CC2)C3)ncc1Cl (top concentration 5000 nM)	6.36	-2.54	-2.54
COc1cc(OC)c(/C=C/S(=O)(=O)Cc2ccc(OC)c(NCC(=O)O)c2)c(OC)c1 [Rigosertib] (top concentration 10000 nM)	16.9	10.9	14.4
COc1cccc2c1c(O)c(C(=O)N(C)c1ccc(C(F)(F)F)cc1)c(=O)n2C [Tasquinimod] (top concentration 10000 nM)	-0.42	-0.32	-0.42
